Measured values: US8658350B2 (priority 2008, dated 2014)

System: CD8+ T cells
Type: cell-based, human

Compound | # SFU | #SFU/250,000 CD8+ T-cells
CC(C)[C@H](NC(=O)[C@H](Cc1ccccc1)NC(=O)[C@H](CCCNC(=N)N)NC(=O)[C@H](C)NC(=O)[C@H](Cc1c[nH]cn1)NC(=O)[C@H](C)NC(=O)[C@H](C)N)C(=O)N[C@@H](C)C(=O)N[C@@H](C)C(=O)O | 88 | 
CSCC[C@H](NC(=O)[C@H](CCC(=O)O)NC(=O)[C@H](C)N)C(=O)N[C@@H](CCCCN)C(=O)N[C@H](C(=O)N[C@@H](CC(=O)O)C(=O)N[C@@H](C)C(=O)N[C@@H](C)C(=O)O)[C@@H](C)O | 2458 | 
CSCC[C@H](NC(=O)[C@H](CCC(=O)O)NC(=O)[C@H](C)N)C(=O)N[C@@H](CCCCN)C(=O)N[C@H](C(=O)N[C@@H](CC(=O)O)C(=O)N[C@@H](C)C(=O)N[C@@H](C)C(=O)N[C@H](C(=O)N[C@@H](CC(C)C)C(=O)N[C@@H](C)C(=O)O)[C@@H](C)O)[C@@H](C)O | 1993 | 
CC(C)C[C@H](NC(=O)[C@H](Cc1ccc(O)cc1)NC(=O)[C@H](CO)NC(=O)[C@H](CCC(N)=O)NC(=O)[C@H](C)NC(=O)[C@@H](NC(=O)[C@@H]1CCCN1C(=O)[C@H](CO)NC(=O)[C@H](C)N)C(C)C)C(=O)O | 210 | 
CC[C@H](C)[C@H](NC(=O)[C@@H](NC(=O)[C@H](C)N)C(C)C)C(=O)N[C@@H](CC(N)=O)C(=O)N[C@H](C(=O)N[C@H](C(=O)N[C@@H](CS)C(=O)N[C@@H](CC(N)=O)C(=O)N[C@@H](Cc1ccc(O)cc1)C(=O)NCC(=O)N[C@@H](CCC(N)=O)C(=O)O)[C@@H](C)O)[C@@H](C)O | 24 | 
CSCC[C@H](NC(=O)[C@@H](N)CCC(=O)O)C(=O)N[C@@H](CCCCN)C(=O)N[C@H](C(=O)N[C@@H](CC(=O)O)C(=O)N[C@@H](C)C(=O)N[C@@H](C)C(=O)N[C@H](C(=O)N[C@@H](CC(C)C)C(=O)O)[C@@H](C)O)[C@@H](C)O | 387 | 
CC[C@H](C)[C@H](NC(=O)[C@H](Cc1c[nH]cn1)NC(=O)[C@H](C)NC(=O)[C@H](CC(=O)O)NC(=O)[C@H](CC(C)C)NC(=O)[C@@H](N)CC(C)C)C(=O)N1CCC[C@H]1C(=O)N[C@@H](CCC(N)=O)C(=O)N[C@@H](CC(C)C)C(=O)O | <10 | 
CC[C@H](C)[C@H](NC(=O)[C@@H](N)CC(N)=O)C(=O)N[C@@H](CCCNC(=N)N)C(=O)N[C@@H](CCC(N)=O)C(=O)N[C@@H](C)C(=O)NCC(=O)N[C@H](C(=O)N[C@@H](CCC(N)=O)C(=O)N[C@@H](Cc1ccc(O)cc1)C(=O)O)C(C)C | 1715 | 
CC(C)[C@H](NC(=O)[C@H](C)NC(=O)[C@H](C)NC(=O)[C@H](CCC(N)=O)NC(=O)[C@H](C)NC(=O)[C@H](C)NC(=O)[C@@H](N)[C@@H](C)O)C(=O)N[C@H](C(=O)N[C@@H](CCCNC(=N)N)C(=O)N[C@@H](Cc1ccccc1)C(=O)O)C(C)C | 258 | 
ELPQWLSANR | <10 | 
QTVEDEARRMW |  | 84
RADEEQQQAL | 120 | 
